Measured values: patent publication US20250163051A1, “PYRIMIDO AROMATIC RING COMPOUND AND USE THEREOF IN DRUG” (SUNSHINE LAKE PHARMA CO., LTD., priority 2022, published 2025)

Key:
hTLR7 = molecular target: T1, hTLR7 (Homo sapiens, UniProt Q9NYK1); assay: Agonistic activity on human TLR7 in HEK-Blue hTLR7 cells (QUANTI-Blue); type: cell-based; conditions: 24 h incubation, OD650, read-out: hTLR 7 EC50
T1 construct: expressed in transfected cells; host or cells: HEK-Blue hTLR7 cells
T1 sequence (Q9NYK1 27-1049): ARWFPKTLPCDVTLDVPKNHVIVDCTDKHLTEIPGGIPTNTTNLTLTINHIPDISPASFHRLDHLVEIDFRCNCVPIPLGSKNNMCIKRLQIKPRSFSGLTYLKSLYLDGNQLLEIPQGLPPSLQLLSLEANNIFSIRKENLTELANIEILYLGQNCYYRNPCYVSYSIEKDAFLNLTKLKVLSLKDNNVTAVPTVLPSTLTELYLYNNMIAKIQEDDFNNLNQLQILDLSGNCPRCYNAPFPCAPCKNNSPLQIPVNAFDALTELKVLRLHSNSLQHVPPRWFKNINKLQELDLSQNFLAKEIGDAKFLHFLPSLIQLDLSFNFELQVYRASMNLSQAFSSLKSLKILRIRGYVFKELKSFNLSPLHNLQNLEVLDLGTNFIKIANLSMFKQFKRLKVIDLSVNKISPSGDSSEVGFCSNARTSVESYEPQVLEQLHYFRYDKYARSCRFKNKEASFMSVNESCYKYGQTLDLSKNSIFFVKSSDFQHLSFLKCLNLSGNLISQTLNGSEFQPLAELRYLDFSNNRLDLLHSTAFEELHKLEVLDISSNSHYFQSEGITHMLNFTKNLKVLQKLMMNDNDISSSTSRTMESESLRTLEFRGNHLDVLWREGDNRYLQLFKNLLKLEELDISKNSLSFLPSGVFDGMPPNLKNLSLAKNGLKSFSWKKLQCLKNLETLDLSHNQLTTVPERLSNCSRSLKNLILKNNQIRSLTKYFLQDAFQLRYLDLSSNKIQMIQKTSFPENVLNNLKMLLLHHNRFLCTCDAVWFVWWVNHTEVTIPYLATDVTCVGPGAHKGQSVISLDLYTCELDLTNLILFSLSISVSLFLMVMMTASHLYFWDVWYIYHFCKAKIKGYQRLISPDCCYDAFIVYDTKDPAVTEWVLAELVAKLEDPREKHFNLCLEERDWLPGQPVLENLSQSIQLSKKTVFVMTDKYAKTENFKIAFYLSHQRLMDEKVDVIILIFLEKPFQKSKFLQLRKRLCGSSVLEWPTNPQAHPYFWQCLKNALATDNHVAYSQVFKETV
Experimental: (§4) Purpose: HEK-Blue™ hTLR7 and HEK-Blue™ hTLR8 cells were used to detect the agonist and cytotoxic activities of compounds against hTLR7 and hTLR8.
(§5) The experimental steps were as shown below: • 1) Preparation of compound: The compound was prepared into a 20 mM stock solution with DMSO, and then the stock solution was diluted 3-fold in a gradient and added to a 96-well plate, for a total of 10 concentrations, with duplicate wells for each concentration. For negative control wells, 0.5 μL DMSO was added to each well. The final DMSO concentration was 0.5%. • 2) HEK-Blue™ hTLR7 or HEK-Blue™ hTLR8 cells were suspended in culture medium and then seeded into 96-well plates containing compounds at a cell count of 50,000 per well. The compounds and cells were incubated for 24 h at 37° C., 5% Co2. • 3) QUANTI-Blue was used for the detection solution: to a mixture of 1 mL of QB reagent and 1 mL of QB buffer was added 98 mL of sterile water, the mixture was mixed and dissolved, and then placed at room temperature for 10 min. • 4) Activity test of the compound: 20 μL of the culture supernatant in step 2) was added to each well of a 96-well plate containing 180 μL of QUANTI-Blue detection solution. After incubation at 37° C. for 1 h, the absorbance at 650 nm (OD650) was detected using a multifunctional microplate reader Flextation III. • 5) Detection of cell activity: The chemiluminescent signal (RLU) was detected using the multifunctional microplate reader Flextation III according to the instructions of Celltiter-Glo. • 6) Data analysis
Activity of compounds: OD650 values were analyzed using GraphPad Prism software, and the compound dose-effect curves were fitted to calculate the EC50 values of the compounds.

hTLR8 = molecular target: T2, hTLR8 (Homo sapiens, UniProt Q9NR97); assay: Agonistic activity on human TLR8 in HEK-Blue hTLR8 cells (QUANTI-Blue); type: cell-based; conditions: 24 h incubation, OD650, read-out: hTLR 8 EC50
T2 construct: expressed in transfected cells; host or cells: HEK-Blue hTLR8 cells
T2 sequence (Q9NR97 27-1041): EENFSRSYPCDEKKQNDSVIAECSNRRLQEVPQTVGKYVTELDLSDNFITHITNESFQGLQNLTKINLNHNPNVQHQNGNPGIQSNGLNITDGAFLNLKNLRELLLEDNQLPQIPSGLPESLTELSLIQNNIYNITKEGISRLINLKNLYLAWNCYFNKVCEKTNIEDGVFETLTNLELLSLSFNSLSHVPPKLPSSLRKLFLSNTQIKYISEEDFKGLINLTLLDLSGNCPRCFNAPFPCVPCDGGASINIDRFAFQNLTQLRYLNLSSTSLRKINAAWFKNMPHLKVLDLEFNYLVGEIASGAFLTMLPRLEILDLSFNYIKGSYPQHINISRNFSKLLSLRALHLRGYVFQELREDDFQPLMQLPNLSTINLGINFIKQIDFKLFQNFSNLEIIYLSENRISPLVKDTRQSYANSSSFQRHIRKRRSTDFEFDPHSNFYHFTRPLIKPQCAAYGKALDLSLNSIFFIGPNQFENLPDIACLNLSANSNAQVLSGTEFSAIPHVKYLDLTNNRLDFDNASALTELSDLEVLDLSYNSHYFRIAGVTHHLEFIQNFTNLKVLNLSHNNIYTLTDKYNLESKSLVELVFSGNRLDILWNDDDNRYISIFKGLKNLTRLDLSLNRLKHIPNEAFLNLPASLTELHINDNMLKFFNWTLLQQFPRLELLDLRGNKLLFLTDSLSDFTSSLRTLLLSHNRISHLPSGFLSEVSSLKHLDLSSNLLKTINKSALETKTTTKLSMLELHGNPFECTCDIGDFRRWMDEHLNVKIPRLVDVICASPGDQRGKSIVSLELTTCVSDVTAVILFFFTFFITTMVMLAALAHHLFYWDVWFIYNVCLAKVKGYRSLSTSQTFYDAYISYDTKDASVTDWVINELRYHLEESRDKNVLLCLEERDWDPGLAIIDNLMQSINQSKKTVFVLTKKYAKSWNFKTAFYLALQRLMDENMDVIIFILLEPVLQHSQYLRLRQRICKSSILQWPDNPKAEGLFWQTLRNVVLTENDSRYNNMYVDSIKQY

in vitro = conditions: human
Experimental: as §4, §5
(§6) Detection of cell activity: The calculation formula for cell activity % is as follows.
(§7) The cell activity % values were analyzed using GraphPad Prism software, and the compound dose-effect curves were fitted to calculate the CC50 values of the compounds.
(§8) Cell activity %=RLU compound/RLU DMSO Control*100%

CYP3A4 = assay: Induction of CYP3A4 in frozen human hepatocytes; type: in vitro ADME; conditions: 72 h induction, concentration and readout not stated; for CYP3A4 Induction percentage relative to positive control (%): positive control Rifampicin
Experimental: (§1) Experimental purpose: Using frozen human hepatocytes as the test system, the induction effects of the test substances on CYP1A2, CYP2B6 and CYP3A4 were evaluated from two aspects of enzyme activity and mRNA level.
(§2) Experimental method: 24 hours after cell plating, induction was started by adding medium containing the test compound (test concentrations were 10, 1, and 0.1 μM), and fresh drug-containing medium was replaced every 24 hours. After 72 hours of induction, the medium was replaced with medium containing CYP1A2, CYP2B6, and CYP3A4 specific substrates for 30 minutes of incubation. 100 μL was taken for treatment, and the labeled metabolites of the substrates were detected to evaluate the enzyme activity level. Finally, the cells were lysed and reverse transcribed, and the expression levels of CYP1A2, CYP2B6 and CYP3A4 genes in the cells were evaluated by real-time quantitative PCR.
(§3) The induction fold of the test compound compared with the blank control and the induction percentage of the test compound compared with the positive control were used as the basis for evaluating the induction potential of the test compound. Among them, the positive control for CYP1A2 is Omeprazole; the positive control for CYP2B6 is Phenobarbital; the positive control for CYP3A4 is Rifampicin.

hERG channel = molecular target: T3, hERG channel (Homo sapiens, UniProt Q12809); assay: hERG channel current in HEK293 cells, automated patch clamp; type: cell-based; conditions: HEK-293 cells stably expressing hERG, whole-cell patch clamp, 0.3-30 μM
T3 construct: expressed in transfected cells; host or cells: HEK-293 cells stably expressing hERG
Experimental: Test 2: Detection of the Effect of Compounds on hERG Channel Currents Stably Expressed in HEK293 Cells Using Automated Patch Clamp
Experimental purpose: The concentration-effect relationship of the blocking effect of the compounds on hERG channels was determined using the patch clamp technique and HEK-293 cells stably expressing hERG channels to evaluate their risk of inhibitory effect on cardiac hERG potassium channels.
Experimental method: hERG cells were clamped using the patch clamp technique to form a high-resistance seal and then the membrane was broken. The whole-cell recording mode was used to record the hERG current. Each drug concentration was set to be administered twice for at least 5 minutes. The test concentrations were 0.3 μM, 1 μM, 3 μM, 10 μM and 30 μM, and the changes of the test compounds on hERG current were observed.

CYP2B6 = assay: Induction of CYP2B6 in frozen human hepatocytes; type: in vitro ADME; conditions: 72 h induction, concentration and readout not stated; for CYP2B6 Induction percentage relative to positive control (%): positive control Phenobarbital
Experimental: as §1, §2, §3

CYP1A2 = assay: Induction of CYP1A2 in frozen human hepatocytes; type: in vitro ADME; conditions: 72 h induction, concentration and readout not stated
Experimental: as §1, §2, §3

[1] = Cell toxicity (Celltiter-Glo) in HEK-Blue hTLR8 cells; conditions: human
Experimental: as §4, §5, §6, §7, §8

T3 sequence (Q12809 whole entry): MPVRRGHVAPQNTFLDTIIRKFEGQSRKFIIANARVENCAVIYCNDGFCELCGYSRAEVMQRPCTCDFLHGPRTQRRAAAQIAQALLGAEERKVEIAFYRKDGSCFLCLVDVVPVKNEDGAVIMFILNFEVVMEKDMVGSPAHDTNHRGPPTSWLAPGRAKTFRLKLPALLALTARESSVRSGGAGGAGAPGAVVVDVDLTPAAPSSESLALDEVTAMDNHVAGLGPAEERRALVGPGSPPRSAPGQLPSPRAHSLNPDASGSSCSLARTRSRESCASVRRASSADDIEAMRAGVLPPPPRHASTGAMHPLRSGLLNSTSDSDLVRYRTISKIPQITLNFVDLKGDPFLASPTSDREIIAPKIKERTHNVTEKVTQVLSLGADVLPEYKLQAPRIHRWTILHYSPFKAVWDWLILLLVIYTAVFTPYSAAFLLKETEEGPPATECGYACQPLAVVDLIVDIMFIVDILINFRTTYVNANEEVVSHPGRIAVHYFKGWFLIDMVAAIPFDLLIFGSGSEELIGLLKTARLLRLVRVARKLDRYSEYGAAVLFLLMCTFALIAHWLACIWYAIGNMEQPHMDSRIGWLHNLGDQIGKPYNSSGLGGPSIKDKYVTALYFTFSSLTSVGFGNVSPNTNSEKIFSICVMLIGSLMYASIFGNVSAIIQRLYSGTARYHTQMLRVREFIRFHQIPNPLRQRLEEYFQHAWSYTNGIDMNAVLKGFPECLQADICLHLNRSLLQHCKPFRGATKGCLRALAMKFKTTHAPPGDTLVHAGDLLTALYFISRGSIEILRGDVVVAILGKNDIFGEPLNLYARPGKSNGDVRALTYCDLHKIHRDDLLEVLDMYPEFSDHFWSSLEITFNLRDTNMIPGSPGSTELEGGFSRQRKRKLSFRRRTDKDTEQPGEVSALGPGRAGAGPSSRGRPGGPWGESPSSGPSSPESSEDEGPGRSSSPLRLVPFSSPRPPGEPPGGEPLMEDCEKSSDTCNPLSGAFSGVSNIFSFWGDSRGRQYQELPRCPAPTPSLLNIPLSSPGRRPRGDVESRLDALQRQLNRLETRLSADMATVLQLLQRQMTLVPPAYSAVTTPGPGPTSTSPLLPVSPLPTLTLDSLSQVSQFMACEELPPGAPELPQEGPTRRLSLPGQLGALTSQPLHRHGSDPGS

**Q.** Which results are given for `CCCC[C@](C)(CO)Nc1nc(N)nc2cc(-c3cc(=O)n(C)cc3CN3CCNCC3)cnc12` [Example 5]?
**A.** EC50 (hTLR7): > 100 µM; EC50 (hTLR8): 2.72 µM; CC50 at 24 h (in vitro): > 100 µM

**Q.** Which results are given for `CCCC[C@](C)(CO)Nc1nc(N)nc2cc(F)cnc12` [Comparative compounds, (R)-2-((2-amino-7-fluoropyrido[3,2-d]pyrimidin-4-yl)amino)-2-methylhexan-1-ol, reference compound]?
**A.** CYP3A4 Induction fold relative to blank control (CYP3A4): 9.5; CYP3A4 Induction percentage relative to positive control (%) (CYP3A4): 15.8%; IC50 (hERG channel): 3.3 µM; CYP2B6 Induction fold relative to blank control (CYP2B6): 3.6; CYP2B6 Induction percentage relative to positive control (%) (CYP2B6): 24.5%; CYP1A2 Induction fold relative to blank control (CYP1A2): 2.6

**Q.** Which “CYP3A4 Induction fold relative to blank control” value (CYP3A4) does the source give for `C=CCCN(C)Cc1c[nH]c(=O)cc1-c1cnc2c(N[C@@](C)(CO)CCCC)nc(N)nc2c1` [Example 9, (R)-4-(2-Amino-4-((1-hydroxy-2-methylhexan-2-yl)amino)pyrido[3,2-d]pyrimidin-7-yl)-5-((but-3-en-1-yl(methyl)amino)methyl)pyridin-2(1H)-one] here?
**A.** The value was 4.2.

**Q.** And the “CYP3A4 Induction percentage relative to positive control (%)” value (CYP3A4)?
**A.** Its value is 2.0%.

**Q.** What about the IC50 (hERG channel) of the same compound?
**A.** The IC50 was 24.7 µM.

**Q.** What about the EC50 (hTLR7) of the same compound?
**A.** The EC50 was 31.8 µM.

**Q.** What about the CC50 at 24 h [1] of the same compound?
**A.** The CC50 at 24 h was greater than 100 µM.

**Q.** And the “CYP2B6 Induction fold relative to blank control” value (CYP2B6)?
**A.** The value was 1.3.

**Q.** And the “CYP2B6 Induction percentage relative to positive control (%)” value (CYP2B6)?
**A.** Its value is 4.2%.

**Q.** What about the “CYP1A2 Induction fold relative to blank control” value (CYP1A2) of the same compound?
**A.** The value was 1.0.

**Q.** What about the EC50 (hTLR8) of the same compound?
**A.** Its EC50 is 0.02 µM.
